Laboratory results published in ChEMBL document CHEMBL1201862, “PubChem BioAssay data set” (2004).
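Each compound was tested at five concentrations against cells in 96-well plates for 48 hours. Here, GI50 denotes the concentration required for 50% inhibition of growth.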 Activity calls are given as the source filed them. Cut-off read from the data, not from the text of the source: active = GI50 up to about 1.1 µM and inactive = higher.

How the values were obtained:
Test in all cases: DTP human tumour cell line panel, 48 h
[1] = test system: LOX IMVI
[2] = test system: CCRF-CEM
[3] = test system: NCI/ADR-RES
[4] = test system: NCI-H460
[5] = test system: ACHN
[6] = test system: SF-539
[7] = test system: HT-29
[8] = test system: HL-60
[9] = test system: SF-268
[10] = test system: UACC-257
[11] = test system: SNB-19
[12] = test system: UACC-62
[13] = test system: SK-MEL-28
[14] = test system: HOP-92
[15] = test system: K562
[16] = test system: SK-MEL-5
[17] = test system: EKVX
[18] = test system: SK-MEL-2
[19] = test system: U-251
[20] = test system: IGROV-1

SMILES | GI50 [1] | GI50 [2] | GI50 [3] | GI50 [4] | GI50 [5] | GI50 [6] | GI50 [7] | GI50 [8] | GI50 [9] | GI50 [10] | GI50 [11] | GI50 [12] | GI50 [13] | GI50 [14] | GI50 [15] | GI50 [16] | GI50 [17] | GI50 [18] | GI50 [19] | GI50 [20]
C/C(=N\NC(=O)c1ccncc1)c1ccc2ccccc2c1O | 1.04 µM (active) | 0.232 µM (active) | 1.87 µM (inactive) | 0.356 µM (active) | 0.993 µM (active) | 1.46 µM (inactive) | 0.498 µM (active) | 0.638 µM (active) | 0.802 µM (active) | 2.71 µM (inactive) | 17.5 µM (inactive) | 2.19 µM (inactive) | 17.2 µM (inactive) | 8.28 µM (inactive) | 1.84 µM (inactive) | 1.67 µM (inactive) | 0.832 µM (active) | 7.69 µM (inactive) | 2.69 µM (inactive) | 2.29 µM (inactive)
N=C(N)SCCc1ccncc1 | > 100 µM (inactive) | 65.8 µM (inactive) | > 100 µM (inactive) | > 100 µM (inactive) | > 100 µM (inactive) | > 100 µM (inactive) | > 100 µM (inactive) | > 100 µM (inactive) | > 100 µM (inactive) | > 100 µM (inactive) | > 100 µM (inactive) | > 100 µM (inactive) | > 100 µM (inactive) | > 100 µM (inactive) | > 100 µM (inactive) | > 100 µM (inactive) | > 100 µM (inactive) | > 100 µM (inactive) | > 100 µM (inactive) | > 100 µM (inactive)
N=C1/C(=C/c2ccc(F)cc2)C(=O)N=C2SC=NN12 | 12.9 µM (inactive) | > 100 µM (inactive) | > 100 µM (inactive) | > 100 µM (inactive) | > 100 µM (inactive) | > 100 µM (inactive) | > 100 µM (inactive) | 80.5 µM (inactive) | > 100 µM (inactive) | > 100 µM (inactive) | > 100 µM (inactive) | 87.9 µM (inactive) | > 100 µM (inactive) | 69.2 µM (inactive) | > 100 µM (inactive) | 62.5 µM (inactive) | > 100 µM (inactive) | > 100 µM (inactive) | > 100 µM (inactive) | > 100 µM (inactive)
Cc1ccc(C(=O)N/N=C2/C(=O)c3c4ccccc4cc4cccc2c34)cc1 | 12.4 µM (inactive) | 3.98 µM (inactive) | 30.1 µM (inactive) | 15 µM (inactive) | 7.82 µM (inactive) | 15.5 µM (inactive) | 21.6 µM (inactive) | 10.2 µM (inactive) | 18.7 µM (inactive) | > 87.9 µM (inactive) | 27.6 µM (inactive) | 26.9 µM (inactive) | 17.7 µM (inactive) | 46.6 µM (inactive) | > 21.1 µM (inactive) | 27.5 µM (inactive) | 40.2 µM (inactive) | 64 µM (inactive) | 21 µM (inactive) | 15.8 µM (inactive)
COC1CC(OC2CCC3(C)C(=CCC4C3C(OC(C)=O)C(OC(=O)CC(C)C)C3(C)C(C(C)=O)CCC43O)C2)OC(C)C1OC1CC(OC)C(OC2CC(OC)C(OC3OC(C)C(OC4OC(CO)C(O)C(O)C4O)C(OC)C3O)C(C)O2)C(C)O1 (stereo not given) | > 75 µM (inactive) | > 7.5 µM (inactive) | > 75 µM (inactive) | > 7.5 µM (inactive) | > 75 µM (inactive) | > 75 µM (inactive) | > 75 µM (inactive) | > 75 µM (inactive) | > 75 µM (inactive) | > 75 µM (inactive) | > 75 µM (inactive) | > 75 µM (inactive) | > 75 µM (inactive) | > 75 µM (inactive) | > 75 µM (inactive) | > 75 µM (inactive) | > 75 µM (inactive) | > 75 µM (inactive) | > 75 µM (inactive) | > 75 µM (inactive)
